# Experimental data as given in US20030083271A1, “Topoisomerase I selective cytotoxic sugar derivatives of indolopyrrolocarbazoles” (priority 2001, published 2003).
# Legend:
# [1] = test system: P388 murine leukemia cells; experiment: In vitro cell-based cytotoxicity, parental P388 cells; settings: Mus musculus, 72 h, median cytotoxic concentration, 3 days continuous exposure
# Protocol: The proliferation inhibition activity against the murine P388 cell line was measured as follows. Evaluation of a soluble tetrazolium/formazan assay for cell growth and drug sensitivity in culture, using human and other tumor cell lines, was done according to the procedure described in Cancer Res. 1988, 48, 4827-4833. Cells were plated at 4000 cells/well in 96 well microtiter plates and 24 h later drugs were added and serially diluted. The cells were incubated at 37° C. for 72 h, at which time a tetrazolium dye, XTT, containing phenazine methosulfate was added. A dehydrogenase enzyme in live cells reduced the XTT to a form that absorbs light at 450 nm, which could be quantitated spectrophotometrically. The greater the absorbance the greater the number of live cells. The results are expressed as an IC50, which is the drug concentration required to inhibit cell proliferation (i.e., absorbance at 450 nm) to 50% of that of untreated control cells.
# (§1) Similarly, P338 murine leukemia cells were maintained in RPMI 1640 supplemented with 20% fetal bovine serum and 10 μM 2-mercaptoethanol. A camptothecin resistant subline, P388/CPT45, was selected for resistance to camptothecin and is over 1000-fold resistant to this compound (Woessner, et al. Oncol. Res. 1992, 4, 481-488).
# (§2) In vitro cytotoxicity was assessed in tissue culture cells by MTS (3-(4,5-dimethylthiazol-2-yl)-5-(3-carboxymethoxyphenyl)-2-(4-sulphenyl)-2H-tetrazolium, inner salt) assay (Riss and Moravec, Mol. Biol. Cell 1992, 3 (Suppl.), 184a). Cells were plated at 8,000 cell/well in 96 well microtiter plates and 24 hours later serial dilutions of the test compounds were made and added to the cells. The cells were incubated at 37° C. for 72 hours, at which time the tetrazolium dye, MTS at 333 μg/ml (final concentration), in combination with the electron coupling agent phenazine methosulfate at 25 μM (final concentration) was added. A dehydrogenase enzyme in live cells reduces the MTS to a form that absorbs light at 492 nm which can be quantitated spectrophotometrically. The greater the absorbance the greater the number of live cells. The results are expressed as an IC50, which is the drug concentration required to inhibit cell proliferation (i.e., absorbance at 492 nm) to 50% of that of untreated control cells.
# The cytotoxic activity for certain compounds of the present invention, in both parental P388 and the camptothecin-resistant P388/CPT45 cell lines are shown below in Table I.
# [2] = molecular target: T1, purified human topoisomerase I (Homo sapiens, UniProt P11387); experiment: Topoisomerase I-mediated single strand DNA break induction (in vitro); format: biochemical; settings: median effect concentration for inducing single-strand breaks in the DNA substrate; read-out: Topo I EC50
# T1 construct: purchased Topogen
# T1 sequence (P11387 1-765): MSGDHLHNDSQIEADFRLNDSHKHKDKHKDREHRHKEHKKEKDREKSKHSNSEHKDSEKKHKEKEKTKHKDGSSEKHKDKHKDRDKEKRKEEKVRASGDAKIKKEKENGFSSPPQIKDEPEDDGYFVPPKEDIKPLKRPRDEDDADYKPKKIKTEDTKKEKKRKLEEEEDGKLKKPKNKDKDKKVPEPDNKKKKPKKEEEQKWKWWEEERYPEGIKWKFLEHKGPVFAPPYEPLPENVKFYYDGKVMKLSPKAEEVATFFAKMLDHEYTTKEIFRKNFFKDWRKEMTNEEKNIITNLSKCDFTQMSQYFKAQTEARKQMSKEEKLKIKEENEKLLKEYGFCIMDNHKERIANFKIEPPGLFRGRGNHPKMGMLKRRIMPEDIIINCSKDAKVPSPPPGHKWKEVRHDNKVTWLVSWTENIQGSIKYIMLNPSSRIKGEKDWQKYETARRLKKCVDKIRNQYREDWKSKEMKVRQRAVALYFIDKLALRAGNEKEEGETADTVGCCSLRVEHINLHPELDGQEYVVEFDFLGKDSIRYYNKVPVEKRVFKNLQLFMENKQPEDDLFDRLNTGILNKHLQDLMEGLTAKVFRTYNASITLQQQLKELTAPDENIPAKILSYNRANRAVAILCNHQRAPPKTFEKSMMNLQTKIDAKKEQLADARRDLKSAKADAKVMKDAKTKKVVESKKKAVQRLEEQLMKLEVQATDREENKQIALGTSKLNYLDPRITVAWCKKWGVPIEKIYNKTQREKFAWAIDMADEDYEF
# Protocol: Topoisomerase I activity was measured as described below. The procedure for assaying compound-induced, topoisomerase I-mediated single strand breaks in DNA was essentially that described by Hsiang, et al., (J. Biol. Chem. 1985, 260, 14873-14878). Samples dissolved in 100% DMSO as either […] or 10 mg/ml solutions, unless otherwise stated, were diluted in Tris-EDTA buffer. Marine bacteriophage PM2 DNA (Boehringer Mannheim) was also diluted in Tris-EDTA buffer to a concentration of 0.02 μg/μl. Different dilutions of the compound being evaluated were mixed with diluted DNA and this mixture was added to […] (one unit of enzyme activity is defined as the amount capable of relaxing 100 ng of supercoiled DNA in approximately 30 minutes at 37° C.) aliquots of purified human topoisomerase I (Topogen) in 2X reaction buffer to start the reaction. The compound-DNA-enzyme mixture was incubated for 30 minutes at 37° C. before stopping the reaction with warm stop buffer containing sodium dodecyl sulfate and proteinase K (Sigma). These mixtures were allowed to incubate at 37° C. for another 10 minutes, at which time the mixtures were removed from the waterbath and extracted with a 24:1 mixture of chloroform/isoamyl alcohol. Following centrifugation, aliquots of the aqueous phases were placed in wells of a 0.9% agarose (SeaKem) gel in Tris-borate buffer containing 0.5 μg/ml of ethidium bromide and subjected to electrophoresis for 15 hours to separate the different topological isomers and nicked and broken DNAs. After destaining the gel in water, the ethidium bromide stained DNA reaction products were visualized by exposing the gel to UV irradiation. Negatives of the photographs of the irradiated gels were scanned with a densitometer and areas under the peaks were calculated in order to obtain percent single strand DNA break formation for each sample. A median effective concentration (EC50) was obtained for each compound by interpolation between points of the resulting dose-effect curve which defines the potency of the compound for its effect in inducing topoisomerase I-mediated single strand breaks in DNA. The topoisomerase I activities for certain compounds of the present invention are shown below in Table I.
# P388/CPT45 cells = experiment: Cytotoxicity in camptothecin-resistant P388/CPT45 cells relative to parental P388 (selectivity index R/S); format: cell-based, murine; settings: IC50 P388/CPT45 cells divided by IC50 parental P388 cells
# Source text: The present invention includes fluoro sugar and other sugar derivatives of indolopyrrolocarbazoles of formula (I), as defined above. […] Most importantly, the instant invention describes topo I active compounds, related to compounds disclosed in WO 98/07433 and co-pending U.S. application, Ser. No. 08/914566 (both herein incorporated by reference), which display a surprising and unexpected selectivity index when evaluated for cytotoxicity in certain cell lines which express normal levels of topo I required for cell proliferation, compared with cell lines that are deficient in or underexpress topo I. Said “selectivity index” (R/S) was generated by dividing the cytotoxic IC50 of a particular compound against a camptothecin-resistant murine leukemia cell line, P388/CPT45, by the IC50 generated when using the parent P388 cell line. […] A level of selectivity was judged to be advantageous and beneficial in, for example, modulating potential undesirable side effects and/or toxicity. The compounds of the present invention were selected from compounds generically disclosed in WO 98/07433 and co-pending U.S. patent application, Ser. No. 08/914566, on the basis of an unexpected and unpredictable selectivity index (see Table I and II). […] Simple changes in the substitution of the sugar portion or the indolopyrrolocarbazole portion of the present invention will change the selectivity. This change in selectivity is not predictable by one skilled in the art.
# as §1, §2
# The selectivity index (R/S) is defined as the ratio obtained by dividing the IC50 value obtained using P388/CPT45 cells by that obtained using parental P388 cells. The R/S ratios used to determine the relative topo I selectivity of selected compounds of this invention are shown below in Table I.
SMILES,IC50 [1] [nM],EC50 [2] [nM],Selectivity Index R/S (P388/CPT45 cells)
NC[C@H]1O[C@@H](n2c3ccc(F)cc3c3c4c(c5c6cc(F)ccc6sc5c32)C(=O)NC4=O)[C@H](O)[C@@H](O)[C@@H]1O [Example 6],68,70,>116.3
C[S+]([O-])C[C@H]1O[C@H](n2c3ccc(F)cc3c3c4c(c5c6cc(F)ccc6[nH]c5c32)C(=O)NC4=O)[C@H](O)[C@@H](O)[C@@H]1O (some centres unmarked) [Example 7],76,10,>116.4
"C[C@]1(O)C[C@@H](CO)O[C@@H](n2c3cc(F)c(F)cc3c3c4c(c5c6cc(F)c(F)cc6[nH]c5c32)C(=O)NC4=O)[C@@H]1O [Example 18, 12-[4-Deoxy-3-methyl-β-D-glucopyranosyl]-2,3,9,10-tetrafluoro-12,13-dihydro-5H-indolo[2,3-a]pyrrolo[3,4-c]carbazole-5,7(6H)-dione]",8,,184.8
NC[C@@H]1C[C@H](O)[C@@H](O)[C@H](n2c3ccc(F)cc3c3c4c(c5c6cc(F)ccc6[nH]c5c32)C(=O)NC4=O)O1 [Example 41],72,20,27.3
"O=C1NCc2c1c1c3cc(F)ccc3n([C@@H]3O[C@H](CO)[C@@H](F)[C@H](O)[C@H]3O)c1c1[nH]c3ccc(F)cc3c21 [Example 34, 12-[4-Deoxy-4-fluoro-β-D-glucopyranosyl)-3,9-difluoro-12,13-dihydro-5H-indolo[2,3-a]pyrrolo[3,4-c]carbazole-7(6H)-one]",2,,2859.5
O=C1NC(=O)c2c1c1c3cc(F)c(F)cc3[nH]c1c1c2c2cc(F)c(F)cc2n1[C@@H]1O[C@H](CO)C[C@H](O)[C@H]1O [Example 21],5,70,207.7
"O=C1NC(=O)c2c1c1c3cc(F)ccc3[nH]c1c1c2c2cc(F)ccc2n1[C@@H]1O[C@H](CO)C[C@@H](O)[C@H]1O [Example 20, 12-[4-Deoxy-β-D-allopyranosyl)-3,9-difluoro-12,13-dihydro-5H-indolo [2,3-a]pyrrolo[3,4-c]carbazole-5,7(6H)-dione]",2,20,201.2
"O=C1NC(=O)c2c1c1c3cc(F)ccc3[nH]c1c1c2c2cc(F)ccc2n1[C@@H]1O[C@H](CO)C[C@H](O)[C@H]1O [Example 31, 12-[4-Deoxy-β-D-glucopyranosyl]-3,9-difluoro-12,13-dihydro-5H-indolo[2,3-a]pyrrolo[3,4-c]carbazole-5,7(6H)-dione]",4,80,720.7
"O=C1NCc2c1c1c3cc(F)ccc3[nH]c1c1c2c2cc(F)ccc2n1[C@@H]1O[C@H](CO)[C@@H](F)[C@H](O)[C@H]1O [Example 32, 12-[4-Deoxy-4-fluoro-β-D-glucopyranosyl]-3,9-difluoro-12,13-dihydro-5H-indolo[2,3-a]pyrrolo[3,4-c]carbazole-5(6H)-one]",5,,1051.8
"CNCC(=O)NC[C@H]1O[C@@H](n2c3ccc(F)cc3c3c4c(c5c6cc(F)ccc6sc5c32)C(=O)NC4=O)[C@H](O)[C@@H](O)[C@@H]1O [Example 23, 12-[6-Deoxy-6-[(N-methylglycinyl)amino]-β-D-glucopyranosyl]-3,9-difluoro-5H, 13H-benzo[b]thienyl[2,3-a]pyrrolo[3,4-c]carbazole-5,7(6H)-dione]",25,,306.8
"CC(C)CC(N)C(=O)O[C@H]1[C@H](n2c3cc(F)c(F)cc3c3c4c(c5c6cc(F)c(F)cc6[nH]c5c32)C(=O)NC4=O)O[C@H](CF)C[C@@H]1O (stereo in doubt) [Example 5, 12-[4,6-Dideoxy-6-fluoro-2-O-leucyl-β-D-glucopyranosyl]-2,3,9,10-tetrafluoro-12,13-dihydro-5H-indolo[2,3-a]pyrrolo[3,4-c]carbazole-5,7(6H)-dione]",32,,112.5
"C[C@@]1(O)C[C@@H](CO)O[C@@H](n2c3cc(F)c(F)cc3c3c4c(c5c6cc(F)c(F)cc6[nH]c5c32)C(=O)NC4=O)[C@@H]1O [Example 29, 12-[4-Deoxy-3-methyl-β-D-allopyranosyl]-2,3,9,10-tetrafluoro-12,13-dihydro-5H-indolo[2,3-a]pyrrolo[3,4-c]carbazole-5,7(6H)-dione]",5,,539.6
"C[C@@H]1C[C@H](O)[C@@H](O)[C@H](n2c3ccc(F)cc3c3c4c(c5c6cc(F)ccc6[nH]c5c32)C(=O)NC4=O)O1 [Example 11, 12-[4,6-Dideoxy-β-D-glucopyranosyl]-3,9-difluoro-12,13-dihydro-5H-indolo[2,3-a]pyrrolo[3,4-c]carbazole-5,7(6H)-dione]",16,,125.3
